Some test systems named below: LOX IMVI; OVCAR-3; SK-OV-3; NCI-H460; A549; SF-539; COLO 205; HT-29; EKVX; 786-0; UO-31; HCT-116; K562; HOP-92; OVCAR-4; HCT-15; SF-295; PC-3; MDA-MB-435; MDA-N.
Holding throughout (test): NCI anticancer screen, dose series, 48 h

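96-well plates; 48 h exposure; 5 concentrations. Endpoints by linear interpolation between flanking doses. Not reached: highest tested concentration assigned. GI50 marks 50% less growth.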 Active and inactive are the calls of the source. Rule as the data show it: active = GI50 up to about 1.1 µM and inactive = higher. Some results are limits rather than exact numbers.

`COc1cc(OC)c2c(c1)C(=O)C(CC1(C)OCCCO1)=CC2=O`: the GI50 with LOX IMVI was 4.34 µM (inactive); with OVCAR-3, 8.55 µM (inactive); in the test on SK-OV-3, 20 µM (inactive); in the test on NCI-H460, 18.6 µM (inactive); with A549, 18.9 µM (inactive); in the test on SF-539, 12.8 µM (inactive). The GI50 was 14.3 µM (inactive) in the test with COLO 205; 13.8 µM (inactive) with HT-29; 14.3 µM (inactive) in the test with EKVX; 9.77 µM (inactive) with 786-0; 11 µM (inactive) in the test on UO-31; 5.35 µM (inactive) in the test with HCT-116. Besides, the GI50 in the test with K562 was 2.74 µM (inactive); with HOP-92, 1.83 µM (inactive); in the test on OVCAR-4, 7.62 µM (inactive); with HCT-15 it was 3.92 µM; in the test on SF-295, 14.6 µM (inactive).
In the case of `N/C(=N\Nc1cccc(Cl)c1)c1cccnc1`, the GI50 in the test on LOX IMVI is 50 µM (inactive); with OVCAR-3, 13.5 µM (inactive); in the test on SK-OV-3, > 100 µM (inactive); in the test with NCI-H460, 35.2 µM (inactive); with A549, 52.7 µM (inactive); in the test on SF-539, 30.2 µM (inactive). Moreover, the GI50 was 29 µM (inactive) in the test with COLO 205; 27.2 µM (inactive) in the test with HT-29; 31 µM (inactive) in the test on PC-3; 40.6 µM (inactive) in the test with EKVX; 2.72 µM (inactive) with MDA-MB-435; 38.2 µM (inactive) with 786-0. In addition, the GI50 with UO-31 was 7.87 µM (inactive); in the test on HCT-116 it was 29.9 µM (inactive); in the test on K562 it was 4.04 µM (inactive); in the test with HOP-92, > 68.7 µM (inactive); in the test on OVCAR-4, 13.7 µM (inactive); in the test on HCT-15, 39.6 µM. The GI50 with SF-295 was 35.7 µM (inactive).
For the compound `CC(=O)OCC1=C(CCC#N)N2C(=O)C(NC(=O)Cc3cccs3)C2[S+]([O-])C1` (centres undefined), the GI50 with LOX IMVI, in the test with OVCAR-3, in the test on SK-OV-3, in the test with NCI-H460, with A549 and in the test with SF-539 was > 100 µM (inactive) each time. The GI50 with COLO 205, in the test with HT-29, in the test on EKVX, with 786-0, in the test with UO-31 and with HCT-116 was > 100 µM (inactive) throughout. Moreover, the GI50 with K562 is > 100 µM (inactive); in the test with HOP-92 it was > 100 µM (inactive); in the test with OVCAR-4, > 100 µM (inactive); in the test on HCT-15, above 100 µM; with SF-295, > 100 µM (inactive).
`Oc1ccc2ccccc2c1/N=N/c1cc(Cl)ccc1Cl`: the GI50 in the test on OVCAR-3 is 19.5 µM (inactive); in the test with SK-OV-3, 10.8 µM (inactive); in the test on A549 it was 17 µM (inactive); with COLO 205, 23.3 µM (inactive); in the test on HT-29 it was 19.3 µM (inactive); in the test with PC-3, 43.5 µM (inactive). Also, the GI50 with EKVX was 9.06 µM (inactive); with MDA-MB-435, > 50 µM (inactive); in the test on 786-0, 9.14 µM (inactive); with MDA-N, 27.5 µM (inactive); in the test on UO-31, 21.3 µM (inactive); with HCT-116, 15.6 µM (inactive). Besides, the GI50 in the test with K562 is 20.7 µM (inactive); in the test on HOP-92, 22.3 µM (inactive); in the test on OVCAR-4 it was 13.9 µM (inactive); in the test on HCT-15, above 50 µM; with SF-295, 9.73 µM (inactive).
With `NC12c3c4cccc3Oc3cccc(c31)Oc1cccc(c12)O4`, the GI50 with OVCAR-3, in the test on SK-OV-3, with NCI-H460, in the test on A549, with SF-539 and in the test with COLO 205 was > 50 µM (inactive) in each case. The GI50 in the test on HT-29, with PC-3, in the test with EKVX, in the test on MDA-MB-435, in the test on 786-0 and with MDA-N was > 50 µM (inactive) throughout. Also, the GI50 in the test with UO-31 is > 50 µM (inactive); with HCT-116 it was > 50 µM (inactive); in the test on K562, 31 µM (inactive); with HOP-92 it was > 50 µM (inactive); in the test on OVCAR-4, > 50 µM (inactive); with HCT-15, above 50 µM. In the test on SF-295, the GI50 is > 50 µM (inactive).
In the case of `COc1ccc(-c2c3c(n(C4OC(CO)C(O)C(O)C4O)c(=S)c2C#N)CCCC3)cc1` (centres undefined), the GI50 in the test on LOX IMVI, in the test on OVCAR-3, in the test on SK-OV-3, in the test on NCI-H460, in the test with A549 and in the test with SF-539 was > 100 µM (inactive) throughout. Besides, the GI50 in the test on COLO 205, with HT-29, in the test on PC-3, in the test with EKVX, in the test on MDA-MB-435 and with 786-0 was > 100 µM (inactive) in each case. Also, the GI50 with MDA-N is > 100 µM (inactive); in the test with HCT-116 it was > 100 µM (inactive); in the test on OVCAR-4, > 100 µM (inactive); in the test on HCT-15, above 100 µM; with SF-295, > 100 µM (inactive).
Turning to `COc1ccc(OC)c(NCC#N)c1`, the GI50 in the test on LOX IMVI, with OVCAR-3, in the test with SK-OV-3, in the test with NCI-H460, in the test on A549 and with SF-539 was > 100 µM (inactive) in each case. In addition, the GI50 in the test with COLO 205, in the test with HT-29, in the test on EKVX, with 786-0, in the test with UO-31 and with HCT-116 was > 100 µM (inactive) throughout. In addition, the GI50 in the test on K562 was > 100 µM (inactive); in the test with HOP-92, > 100 µM (inactive); in the test with OVCAR-4, > 100 µM (inactive); in the test with HCT-15 it was above 100 µM; in the test on SF-295 it was > 100 µM (inactive).
For `CC(=O)OCCOCNC(=S)N/N=C/c1cc([N+](=O)[O-])ccc1O`, the GI50 in the test with LOX IMVI was > 100 µM (inactive); with OVCAR-3, 42.5 µM (inactive); in the test with SK-OV-3 it was > 100 µM (inactive); with NCI-H460 it was > 100 µM (inactive); in the test on A549, > 100 µM (inactive); in the test on SF-539, > 100 µM (inactive). Moreover, the GI50 in the test with COLO 205 was 75 µM (inactive); in the test with HT-29 it was > 100 µM (inactive); with EKVX, > 100 µM (inactive); with 786-0, > 100 µM (inactive); in the test with UO-31, > 100 µM (inactive); in the test on HCT-116 it was 64.3 µM (inactive). Moreover, the GI50 is > 100 µM (inactive) in the test on K562; > 100 µM (inactive) in the test on HOP-92; 84.5 µM (inactive) with OVCAR-4; above 100 µM in the test with HCT-15; > 100 µM (inactive) with SF-295.
In the case of `COc1ccc(Nc2nc3ccc(C(F)(F)F)cc3nc2C(=O)O)cc1OC`, the GI50 in the test on LOX IMVI is 28.8 µM (inactive); in the test on OVCAR-3, 17.9 µM (inactive); with NCI-H460, 21.2 µM (inactive); in the test on COLO 205, 43 µM (inactive); in the test on HT-29, 38.4 µM (inactive); in the test with PC-3, 26.5 µM (inactive). The GI50 was 36.2 µM (inactive) in the test on EKVX; 32.7 µM (inactive) in the test on MDA-MB-435; 35 µM (inactive) in the test on 786-0; 34.7 µM (inactive) with MDA-N; 19.2 µM (inactive) with UO-31; 25.9 µM (inactive) with HCT-116. Besides, the GI50 in the test with K562 is 29 µM (inactive); with OVCAR-4, 40.6 µM (inactive); with HCT-15, 25.9 µM; in the test with SF-295, 24 µM (inactive).
With `O=[N+]([O-])c1cccc(-c2nc(-c3ccccc3)c(-c3ccccc3)[nH]2)c1`, the GI50 in the test on LOX IMVI, in the test with OVCAR-3, in the test with SK-OV-3, in the test with NCI-H460, with A549 and in the test with SF-539 was > 100 µM (inactive) in each case. The GI50 in the test with COLO 205, in the test on PC-3, with EKVX, with MDA-MB-435, in the test on 786-0 and in the test with MDA-N was > 100 µM (inactive) each time. Besides, the GI50 in the test with UO-31, in the test on HCT-116, in the test with K562 and in the test on SF-295 was > 100 µM (inactive) throughout.
With `C[NH+]1[C@@H](Cc2ccccc2)C(=O)O[B-]1(F)c1ccccc1` (some centres undefined), the GI50 in the test on OVCAR-3, in the test on SK-OV-3, in the test with NCI-H460, with A549, in the test with COLO 205 and with HT-29 was > 100 µM (inactive) each time. In addition, the GI50 in the test with PC-3, in the test with EKVX, with MDA-MB-435, in the test with 786-0, with MDA-N and in the test with UO-31 was > 100 µM (inactive) in each case. Also, the GI50 in the test on HCT-116 is > 100 µM (inactive); with K562 it was > 100 µM (inactive); in the test with HOP-92, > 100 µM (inactive); with OVCAR-4, > 100 µM (inactive); with HCT-15, above 100 µM; in the test with SF-295, > 100 µM (inactive).
With `CC[C@H](CO)Nc1nc(NCc2ccccc2)c2ncn(C(C)C)c2n1` [SELICICLIB], the GI50 in the test with LOX IMVI was 14 µM (inactive); in the test on OVCAR-3, 11.5 µM (inactive); in the test with SK-OV-3 it was 86.3 µM (inactive); in the test with NCI-H460 it was 27.9 µM (inactive); in the test on A549 it was 13.6 µM (inactive); with SF-539, 15.8 µM (inactive). Also, the GI50 in the test on COLO 205 was 11.6 µM (inactive); in the test on HT-29 it was 20 µM (inactive); in the test on PC-3, 19.9 µM (inactive); in the test with EKVX it was 19.1 µM (inactive); with MDA-MB-435, 13.3 µM (inactive); in the test on 786-0, 23.3 µM (inactive). Further, the GI50 in the test with UO-31 is 13.6 µM (inactive); in the test with HCT-116, 5.09 µM (inactive); with K562, 53 µM (inactive); in the test with HOP-92, 50.9 µM (inactive); with OVCAR-4 it was 35.2 µM (inactive); in the test on HCT-15, 19.3 µM. Besides, the GI50 in the test on SF-295 is 25.5 µM (inactive).

The record behind these values is ChEMBL document CHEMBL1201862, “PubChem BioAssay data set” (2004).
